Key:
[1] = test system: INS-1 cells; assay: Intracellular ATP amount by luciferase assay in INS-1 cells; type: cell-based; conditions: 10 μM, 2 hours, vs DMSO control
Protocol: (§1) Initially, the INS-1 cells, which are insulin-secreting cells, were cultured in a cell incubator (37° C., 5% CO2, RPMI medium, 10% FBS), were treated with 10 μM of gypenoside 75, ginsenoside F1, ginsenoside Rg3, ginsenoside Rb2, or ginsenoside Rb3 for 2 hours, and the intracellular ATP amount and mitochondrial membrane potential were measured. For the control group, cells treated with DMSO were used.
Next, the amount of ATP was measured using luciferase. As the fluorescence by activation of luciferase depends on the amount of ATP, the intracellular ATP amount can be measured by measuring the level of the fluorescence emission.
Specifically, the INS-1 cells treated with each of the above materials were lysed through freezing-thawing and ultrasonication treatments to obtain a cell lysate. Luciferase and luciferin were added to the obtained cell lysate above to induce fluorescence, and the levels of the fluorescence were quantified and compared (FIG. 1).

[2] = test system: INS-1 cells; assay: Mitochondrial membrane potential by TMRM staining and FACS in INS-1 cells; type: cell-based; conditions: 10 μM, 2 hours, TMRM staining, vs DMSO control
Protocol: as §1
In the final stage, the mitochondrial membrane potential was measured by tetramethylrhodamine methyl ester (TMRM) staining. As the level of the TMRM staining increases proportionately to the mitochondrial membrane potential, the intracellular mitochondrial membrane potential can be measured by measuring the level of the TMRM staining.
Specifically, the INS-1 cells treated with each of the above materials were stained with TMRM, and applied to fluorescence-activated cell sorting (FACS). Then, the level of the staining was quantified, analyzed, and compared (FIG. 2).

## CC(C)=CCC[C@](C)(O[C@@H]1O[C@H](CO[C@@H]2O[C@H](CO)[C@@H](O)[C@H](O)[C@H]2O)[C@@H](O)[C@H](O)[C@H]1O)[C@H]1CC[C@]2(C)[C@@H]1[C@H](O)C[C@@H]1[C@@]3(C)CC[C@H](O)C(C)(C)[C@@H]3CC[C@]12C [gypenoside 75]
[1]
  increase of intracellular ATP amount compared with the control group: 50%
[2]
  increase of intracellular mitochondrial membrane potential compared with the control group: 40%

Source: patent US10330672B2, “Method for screening activator of mitochondrial activity” (INTELLIGENT SYNTHETIC BIOLOGY CENTER, priority 2015, dated 2019)
